Four compounds from patent publication US20240174617A1, “FPR2 (FORMYL PEPTIDE RECEPTOR 2)RECEPTOR AGONISTS AND THEIR USE IN THE TREATMENT OF THE AUTISM SPECTRUM DISORDER” (UNIVERSITA' DEGLI STUDI DI BARI ALDO MORO, priority 2021, published 2024) can be followed below.

Holding throughout (assay type): cell-based
In series [1] the test system is mouse microglial N9 cells. Kind of series: cell viability (LDH assay) in microglial N9 cells. Particulars: for LDH release activity (cytotoxic effect): basal conditions, 0.5-5 μM, 24 hours (FIG. 4); for cell mortality (LDH release), neuroprotective effect: pre-incubation 0.5-5 μM, then LPS (100 ng/mL) for 24 hours (FIG. 4). The procedure: Study of the effect of compounds (S)-4, (S)-5, (S)-7, (R)-8, (S)-8, (S)-9, (S)-12, (S)-15 and (S)-16 on the cell viability (LDH assay) in cultures of mouse microglial N9 cells.
The neuroprotective activity of the compounds (S)-4, (S)-5, (S)-7, (R)-8, (S)-8, (S)-9, (S)-12, (S)-15 and (S)-16 was assessed by determining its effect on the cell viability both under basal conditions and following stimulation with bacterial lipopolysaccharide (LPS) toxin. The mouse microglial N9 cells were seeded in a 96-well plate (2x10^4 cells/well) by using RPMI supplemented with 1% fetal bovine serum (FBS) as culture medium. The cells were incubated for 24 hours with different concentrations of the selected compounds (0.5-5 μM) to assess the potential cytotoxic effect of the compounds. The control cells were treated with the carrier only. To quantify the cell mortality, the level of lactate dehydrogenase (LDH) release after 24 hours of treatment was determined. The supernatant of the cell cultures was taken and incubated for 20 minutes at room temperature with the appropriate mixture of reagents according to the instructions of the supplier of the assessment kit (Cytotoxicity Detection Kit, Roche, Germany). The LDH release activity was determined as conversion of lactate to pyruvate by a colorimetric test (X=490 nm, Infinite 200 PRO Detector, TECAN, Switzerland). The LDH release activity is proportional to the 25 number of damaged cells. […] Subsequently, the cells were pre-incubated with different concentrations of the selected compounds (0.5-5 μM) and then stimulated with LPS (100 ng/mL) for 24 hours. The control cells were treated with the carrier only. The cell viability at the end 30 of 24 hours was assessed as previously described.
On the technique in general: LDH in the medium is a marker of cell lysis.

Series [2] deals with TNF-α release in mouse microglial N9 cells. Kind of series: TNF-α release (ELISA) in microglial N9 cells. As for the experimental part: (§1) The anti-inflammatory effect of the compounds (S)-4, (S)-7, (S)-8, (S)-9 and (S)-16 was determined by assessing its ability to affect the release of the pro-inflammatory cytokines IL-1β and TNF-α both in the cells under basal conditions and after stimulation with LPS. The mouse microglial N9 cells were seeded in a 96-well plate (2×10^4 cells/well) by using Iscove supplemented with 10% FBS as culture medium. The cells were then treated with different concentrations of the selected compounds (0.5-5 il.M) for 24 hours. The supernatant was then collected and the IL-1β and TNF-a levels were measured by using specific ELISA kits following the instructions of the supplier (R&D Systems, USA). […] Subsequently, the cells were pre-incubated with different concentrations of the selected compounds (0.5-5 μM) and then stimulated with LPS (100 ng/mL) for 24 hours. The control cells were treated with the carrier only. The IL-1β and TNF-α levels were determined as previously described. […] The specificity of the observed effect was assessed by co-incubating the cells with the FPR2 antagonist WRW4.
On the technique in general: In an ELISA, binding on a coated surface is turned into a signal by an enzyme label.

For series [3], the system named is IL-1β release in mouse microglial N9 cells. Kind of series: IL-1β release (ELISA) in microglial N9 cells. The procedure:
as §1

Setting [4] is: basal conditions, 0.5-5 μM, 24 hours (FIG. 6).
The mark [5] stands for this setting: pre-incubation 0.5-5 μM, then LPS (100 ng/mL) for 24 hours (FIG. 6).
[6] abbreviates: basal conditions, 0.5-5 μM, 24 hours (FIG. 5).
The mark [7] stands for this setting: pre-incubation 0.5-5 μM, then LPS (100 ng/mL) for 24 hours (FIG. 5).

As for `N#Cc1ccc(C[C@H](NC(=O)Nc2ccc(F)cc2)C(=O)NC2CCCCNC2=O)cc1` (stereo partly drawn) [(S)-4, (2S)-3-(4-Cyanophenyl)-2-(3-(4-fluorophenyl)ureido)-N-(2-oxoazepan-3-yl)propanamide], the “LDH release activity (cytotoxic effect)” value in series [1] is “do not increase the LDH release activity”. In addition, the “cell mortality (LDH release), neuroprotective effect” value (shortened to “cell mortality (LDH release)”) in series [1] is “reduce the cell mortality effect caused by the stimulation with LPS”. Moreover, the TNF-α release entry is “do not cause increased release of the two cytokines” in series [2] (setting [4]) and “reduce the release of inflammatory cytokines” in series [2] (setting [5]). For the same compound, the IL-1β release entry in series [3] (setting [6]) is “do not cause increased release of the two cytokines”; in series [3] (setting [7]) it was “reduce the release of inflammatory cytokines”.

With `N#Cc1ccc(C[C@H](NC(=O)Nc2ccc(F)cc2)C(=O)N2CCc3ccccc32)cc1` [(S)-7, (S)-1-(3-(4-Cyanophenyl)-1-(indolin-1-yl)-1-oxopropan-2-yl)-3-(4-fluorophenyl)urea], the “LDH release activity (cytotoxic effect)” value in series [1] is “do not increase the LDH release activity”. In series [1], the “cell mortality (LDH release)” value was “reduce the cell mortality effect caused by the stimulation with LPS”. Besides, the TNF-α release result in series [2] (setting [4]) was “do not cause increased release of the two cytokines”; in series [2] (setting [5]), “reduce the release of inflammatory cytokines”. In addition, the results for the IL-1β release entry in series [3] (setting [6]) and in series [3] (setting [7]) were “do not cause increased release of the two cytokines” and “reduce the release of inflammatory cytokines”, respectively.

Regarding `N#Cc1ccc(C[C@H](NC(=O)Nc2ccc(F)cc2)C(=O)N2CCc3ccc(F)cc32)cc1` [(S)-8, (S)-1-(3-(4-Cyanophenyl)-1-(6-fluoroindolin-1-yl)-1-oxopropan-2-yl)-3-(4-fluorophenyl)urea], in series [1], the “LDH release activity (cytotoxic effect)” value is “do not increase the LDH release activity”. Besides, the “cell mortality (LDH release)” value in series [1] is given as “reduce the cell mortality effect caused by the stimulation with LPS”. Also, the TNF-α release entry in series [2] (setting [4]) is “do not cause increased release of the two cytokines”; in series [2] (setting [5]) it was “reduce the release of inflammatory cytokines”. Also, the IL-1β release entry in series [3] (setting [6]) is given as “do not cause increased release of the two cytokines”; in series [3] (setting [7]), “reduce the release of inflammatory cytokines”.

Turning to `N#Cc1ccc(C[C@H](NC(=O)Nc2ccc(F)cc2)C(=O)N2CCc3cc(F)ccc32)cc1` [(S)-9, (S)-1-(3-(4-Cyanophenyl)-1-(5-fluoroindolin-1-yl)-1-oxopropan-2-yl)-3-(4-fluorophenyl)urea], the “LDH release activity (cytotoxic effect)” value in series [1] was “do not increase the LDH release activity”. Further, the “cell mortality (LDH release)” value in series [1] is on record as “reduce the cell mortality effect caused by the stimulation with LPS”. Besides, the TNF-α release entry in series [2] (setting [4]) is on record as “do not cause increased release of the two cytokines”; in series [2] (setting [5]) it was “reduce the release of inflammatory cytokines”. In addition, the IL-1β release entry is recorded as “do not cause increased release of the two cytokines” in series [3] (setting [6]) and “reduce the release of inflammatory cytokines” in series [3] (setting [7]).
